From BindingDB's records for doi:10.1016/j.bmcl.2010.03.073 (Methylgene, 2010)

Tests used:
[1] = Inhibition of c-Met-mediated scattering in HGF-stimulated human DU145 cells
[2] = Inhibition of c-Met-mediated cell migration of human A549 cells by would healing

Cn1cnc(-c2cc3nccc(Oc4ccc(NC(=O)c5cnn(-c6ccccc6)c5C(F)(F)F)cc4F)c3s2)c1 [N-(3-fluoro-4-(2-(1-methyl-1H-imidazol-4-yl)thieno[3,2-b]pyridin-7-yloxy)phenyl)-1-phenyl-5-(trifluoromethyl)-1H-pyrazole-4-carboxamide]
IC50 [1]: 2000 nM | IC50 [2]: 400 nM
